A value given as a limit tells only on which side of the number the result lay.

By Cmax is commonly meant the maximum level reached in the sampled fluid or tissue. Usually Tmax stands for the time from dosing to the highest level. As a reminder, the AUC is the area under the concentration-time curve, a measure of exposure. A low value points to low exposure. The term Vd denotes a proportionality between amount in the body and measured concentration, not a real space. Lower therefore signals confinement near the circulation. What is called Kp is the ratio of the level in a tissue or fluid to that in plasma or blood. In general, IC50 refers to the concentration at which inhibition is half-maximal. What is called AUC(0-t) is exposure summed from dosing to a finite time, without extrapolation to infinity. Low values mean less exposure, high ones more exposure. The term bioavailability denotes dose-corrected exposure relative to a reference, in per cent. A low value points to poor availability.

The nature of data set [1]: Protein binding in human plasma incubated for 240 mins by equilibrium dialysis. In kind it is ADME, cell-free. The settings on record: read-out: PPB (converted). In general terms: Equilibrium dialysis compares concentrations on both sides of a semipermeable membrane.
Data set [2] can be described thus: Half life in mouse plasma at 5 ug/ml incubated for 1 to 24 hrs by LC/MS/MS method. The data set is classed as ADME, cell-free. To be noted: time 1-24 hrs, dose 5 µg/ml.
A short description of data set [3]: Half life in human plasma at 5 ug/ml incubated for 1 to 24 hrs by LC/MS/MS method. In kind it is ADME, cell-free. The settings on record: time 1-24 hrs, dose 5 µg/ml.
Data set [4] in a line: Half life in dog plasma at 5 ug/ml incubated for 1 to 24 hrs by LC/MS/MS method. To be noted: time 1-24 hrs, dose 5 µg/ml. In kind it is ADME, cell-free, Canis lupus familiaris.
The nature of data set [5]: Cmax in human at 0.5 g, iv. In kind it is ADME. More on the design: route intravenous, dose 0.5 g. To be noted: in vivo.
A short description of data set [6]: Renal clearance in human at 0.5 g, iv. In kind it is ADME. To be noted: in vivo.
Data set [7] is described as follows: Tmax in human serum at 2 g, po. The data set is classed as ADME.
A short description of data set [8]: Drug excretion in human urine at 2 g, po measured within 24 hrs. In kind it is ADME, organism-based. The settings on record: in vivo.
A short description of data set [9]: Cmax in human at 2 g, po. In kind it is ADME. More on the design: route oral, dose 2 g. The settings on record: in vivo.
A short description of data set [10]: Volume of distribution at steady state in human at 0.5 g, iv. The data set is classed as ADME. To be noted: in vivo.
Data set [11] in a line: Oral bioavailability in human at 2 g. In kind it is ADME, organism-based. To be noted: in vivo.
A short description of data set [12]: Half life in human at 0.5 g, iv. The data set is classed as ADME. The settings on record: in vivo.
Data set [13] in a line: Half life in human at 2 g, po. The data set is classed as ADME. To be noted: in vivo.
Data set [14] in a line: Cmax in human serum at 2 g, po. The data set is classed as ADME, cell-free. More on the design: route oral, dose 2 g.
A short description of data set [15]: Protein binding in human plasma at 2 g, po. In kind it is ADME, cell-free.
Data set [16] is described as follows: AUC (0 to infinity) in human serum at 2 g, po. Set-up: route oral, time infinity, dose 2 g. The data set is classed as ADME, cell-free.
Data set [17] in a line: Total clearance in human at 0.5 g, iv. In kind it is ADME. To be noted: in vivo.
A short description of data set [18]: Non-renal clearance in human at 0.5 g, iv. The settings on record: in vivo. The data set is classed as ADME.
A short description of data set [19]: Drug excretion in human urine at 0.5 g, iv measured within 24 hrs. The data set is classed as ADME, organism-based. The settings on record: in vivo.
A short description of data set [20]: Tmax in human at 2 g, po. The settings on record: in vivo. In kind it is ADME.
The nature of data set [21]: Volume of distribution in human at 20 mg/kg, iv measured over 1 hr. The data set is classed as ADME, organism-based. The settings on record: in vivo.
The nature of data set [22]: AUC (0 to 24 hrs) in human at 20 mg/kg, iv measured over 1 hr. In kind it is ADME, organism-based. More on the design: route intravenous, time 1 hrs, dose 20 mg/kg. To be noted: in vivo.
A short description of data set [23]: Elimination half life in human at 20 mg/kg, iv measured over 1 hr. In kind it is ADME, organism-based. The settings on record: in vivo, read-out: beta t1/2 (converted).
Data set [24] is described as follows: Ratio of drug level in human erythrocytes to plasma at 20 mg/kg, iv measured over 1 hr. In kind it is ADME, organism-based.
The target of data set [25] is Serine/threonine-protein kinase/endoribonuclease IRE1 (Mus musculus, UniProt Q9EQY0). Briefly: Inhibition of mouse IRE1 assessed as reduction in XBP1 splicing using 5'-Alexa Fluor 647-CAUGUCCGCAGCGCAUG-BHQ1-3' as substrate preincubated for 30 mins followed by substrate addition by FRET assay.
A short description of data set [26]: Cmax in human erythrocytes at 37 mg/kg, po. More on the design: route oral, dose 37 mg/kg. In kind it is ADME, organism-based, Erythrocyte.
A short description of data set [27]: Half life in human erythrocytes at 37 mg/kg, po by HPLC method. The data set is classed as ADME, organism-based, Erythrocyte.
Data set [28] is described as follows: Tmax in human plasma at 37 mg/kg, po by HPLC method. In kind it is ADME, organism-based.
Data set [29] in a line: Half life in human plasma at 37 mg/kg, po by HPLC method. In kind it is ADME, organism-based.
The nature of data set [30]: AUC (0 to 24 hrs) in human erythrocytes at 37 mg/kg, po by HPLC method. In kind it is ADME, organism-based, Erythrocyte. Set-up: time < 24 hr, route oral, dose 37 mg/kg.
A short description of data set [31]: AUC (0 to 24 hrs) in human plasma at 37 mg/kg, po by HPLC method. The data set is classed as ADME, organism-based. More on the design: time < 24 hr, route oral, dose 37 mg/kg. To be noted: in vivo.
Data set [32] can be described thus: Tmax in human erythrocytes at 37 mg/kg, po by HPLC method. In kind it is ADME, organism-based, Erythrocyte.
Data set [33] in a line: Cmax in human plasma at 37 mg/kg, po by HPLC method. In kind it is ADME, organism-based. More on the design: route oral, dose 37 mg/kg.
Data set [34] can be described thus: Renal clearance in human at 20 mg/kg, IM. The data set is classed as ADME, organism-based. The settings on record: in vivo.
Data set [35] in a line: Half life in human at 20 mg/kg, IM. In kind it is ADME, organism-based. The settings on record: in vivo.
The nature of data set [36]: Cmax in human at 20 mg/kg, IM. In kind it is ADME, organism-based. Set-up: route […], dose 20 mg/kg. To be noted: in vivo.
A short description of data set [37]: Volume of distribution at steady state in human at 20 mg/kg, IM. In kind it is ADME, organism-based. To be noted: in vivo.
Data set [38] is described as follows: Tmax in human at 20 mg/kg, IM. The data set is classed as ADME, organism-based. The settings on record: in vivo.
Data set [39] in a line: Drug excretion in human at 20 mg/kg, IM measured for 24 hrs. To be noted: in vivo, read-out: Drug excretion. In kind it is ADME, organism-based.
Data set [40] in a line: Protein binding in human plasma at 20 mg/kg, IM. The settings on record: read-out: PPB (converted). In kind it is ADME, organism-based.
Data set [41] is described as follows: Bioavailability in human at 20 mpk, IM. In kind it is ADME, organism-based. The settings on record: in vivo, dose 20 mg/kg.

Serine/threonine-protein kinase/endoribonuclease IRE1, sequence (Q9EQY0 whole entry): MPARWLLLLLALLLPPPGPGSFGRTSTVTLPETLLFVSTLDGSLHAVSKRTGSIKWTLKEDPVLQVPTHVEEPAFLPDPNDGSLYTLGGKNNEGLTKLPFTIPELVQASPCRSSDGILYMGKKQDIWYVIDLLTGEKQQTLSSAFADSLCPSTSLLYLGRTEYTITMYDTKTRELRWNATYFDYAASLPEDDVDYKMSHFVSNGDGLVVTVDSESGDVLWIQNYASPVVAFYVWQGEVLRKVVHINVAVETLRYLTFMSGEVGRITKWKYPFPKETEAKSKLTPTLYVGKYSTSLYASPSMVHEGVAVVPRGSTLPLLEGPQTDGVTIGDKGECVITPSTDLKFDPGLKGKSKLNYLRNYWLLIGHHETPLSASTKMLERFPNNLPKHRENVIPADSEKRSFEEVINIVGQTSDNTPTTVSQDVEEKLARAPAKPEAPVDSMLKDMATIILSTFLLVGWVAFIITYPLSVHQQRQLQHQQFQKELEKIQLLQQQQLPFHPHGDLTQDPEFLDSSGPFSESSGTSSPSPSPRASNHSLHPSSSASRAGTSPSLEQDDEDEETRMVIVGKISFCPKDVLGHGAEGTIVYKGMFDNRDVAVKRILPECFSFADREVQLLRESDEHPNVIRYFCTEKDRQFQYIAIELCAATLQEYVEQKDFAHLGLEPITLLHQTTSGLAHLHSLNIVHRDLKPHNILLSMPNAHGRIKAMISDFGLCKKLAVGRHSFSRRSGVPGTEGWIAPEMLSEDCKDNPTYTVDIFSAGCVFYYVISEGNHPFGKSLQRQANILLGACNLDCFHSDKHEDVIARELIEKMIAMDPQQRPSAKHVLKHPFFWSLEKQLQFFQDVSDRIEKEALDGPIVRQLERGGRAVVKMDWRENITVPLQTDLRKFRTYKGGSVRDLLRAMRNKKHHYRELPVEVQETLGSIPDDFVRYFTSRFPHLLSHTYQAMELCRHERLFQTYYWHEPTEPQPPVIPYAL

On to `CN1CCC(=C2c3ccccc3CCn3c(C(=O)O)cnc32)CC1`, for which the fraction unbound at 4 h in data set [1] was 0.37.
On to `Cc1cc2c(C(C)C)c(O)c(O)cc2c(O)c1-c1c(C)cc2c(C(C)C)c(O)c(O)cc2c1O` [APOGOSSYPOL], for which the half-life at 5 ug/ml in [2], in data set [3] and in data set [4] was less than 1 h throughout.
For SPIRAMYCIN, the Cmax stood at 2.7 µM in data set [5], 2 µM in data set [9] and 3.7 µM in [14]. For the same compound, the CL worked out at 144.2 mL/min in data set [6], 1.14 L/min in data set [17] and 887 mL/min in data set [18]. The Tmax in data set [7] amounted to 3.3 h; in [20], 4 h. In addition, the Drug excretion in data set [8] was determined as 4.4%; in data set [19] it was 13.9%. The Vdss in [10] was determined as 5.5 L/kg. Also, the F in [11] worked out at 10%. Moreover, the figures for the t1/2 in data set [12] and in data set [13] were 5.54 h and 6.23 h, respectively. This compound also registered a PPB in data set [15] of 48%. The AUC in [16] was found to be 12 µM·h.
Compound `O=Cc1c(O)cccc1OCCCCC(=O)O` [VELARESOL] yielded a Vd in [21] of 0.067 L/kg. The AUC in [22] was determined as 5.18 µM·h. In addition, the half-life in [23] was 2.2 h. For the same compound, the Kp at 1 h in data set [24] amounted to 14.3.
As to `COc1cc2c(C)c(CC(=O)N3CCOCC3)c(=O)oc2c(C=O)c1O`, the IC50 in data set [25] is less than 100 nM.
`O=Cc1c(O)cccc1OCc1ccc(C(=O)O)cc1` [TUCARESOL]: the values for the Cmax in data set [26] and in [33] were 2460 µM and 271 µM, respectively. Further, the half-life in data set [27] is 120 h; in data set [29] it was 223 h. Besides, the Tmax in [28] turned out to be 7.5 h; in [32] it was 24 h. This compound registered an AUC(0-t) at 24 h in data set [30] of 579 µM·h. Besides, the Kp at 1 h in data set [24] was less than 11.2. This compound came in with an AUC in [31] of 62 µM·h.
In the case of `[H]/N=C(/N)N[C@H]1[C@H](O)[C@@H](O)[C@H](O[C@@H]2O[C@@H](C)[C@](O)(C=O)[C@H]2O[C@@H]2O[C@@H](CO)[C@H](O)[C@@H](O)[C@@H]2NC)[C@@H](N/C(N)=N\[H])[C@@H]1O` [STREPTOMYCIN], in data set [34], the CL renal was 30 mL/min. Besides, the half-life in data set [35] was 5.3 h. The compound also showed a Cmax in [36] of 43 µM. The same compound returned a Vdss in data set [37] of 1.77 L/kg. In addition, in data set [38], the Tmax stood at 0.5 h. The dose excreted at 24 h in data set [39] amounted to 39%. The fraction unbound in [40] is 0.52. In addition, the bioavailability in data set [41] came out at 80%.

The values are drawn from ChEMBL document CHEMBL4813910, “Curse or Cure? A Perspective on the Developability of Aldehydes as Active Pharmaceutical Ingredients” (J Med Chem, 2020).
